This is an account of results in patent US7517874B2 (priority 2007, dated 2009).

Test [1] concerns the target T1, rat CB2 receptor (rCB2) (Rattus norvegicus, UniProt Q9QZN9).
T1 sequence (Q9QZN9 1-360): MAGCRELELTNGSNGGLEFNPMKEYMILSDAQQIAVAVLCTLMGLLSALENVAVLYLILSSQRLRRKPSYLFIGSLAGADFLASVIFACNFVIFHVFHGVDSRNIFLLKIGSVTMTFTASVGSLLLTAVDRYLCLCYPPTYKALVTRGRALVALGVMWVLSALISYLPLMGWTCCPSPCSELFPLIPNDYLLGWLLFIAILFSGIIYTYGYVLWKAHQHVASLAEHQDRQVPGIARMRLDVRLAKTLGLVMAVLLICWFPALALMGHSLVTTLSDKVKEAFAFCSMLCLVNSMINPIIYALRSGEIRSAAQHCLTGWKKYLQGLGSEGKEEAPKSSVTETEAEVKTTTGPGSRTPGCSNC
In words: cell-based. Format: cell-based. The conditions noted are these: for +/− RCB2: agonist or inverse agonist at rCB2. An outline of the steps:
(§1)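 Readout: LANCE TR-FRET cAMP, back-calculated from a concurrent standard curve and scaled between forskolin-only and forskolin + 1 μM CP55,940 wells. EC50 and intrinsic activity came from four-parameter fits.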

Test [2] addresses human CB1 receptor (hCB1) (Homo sapiens, UniProt P21554). In words: cell-based. It is filed as cell-based. An outline of the steps:
as §1

Sequence of human CB1 receptor (hCB1) (P21554 whole entry): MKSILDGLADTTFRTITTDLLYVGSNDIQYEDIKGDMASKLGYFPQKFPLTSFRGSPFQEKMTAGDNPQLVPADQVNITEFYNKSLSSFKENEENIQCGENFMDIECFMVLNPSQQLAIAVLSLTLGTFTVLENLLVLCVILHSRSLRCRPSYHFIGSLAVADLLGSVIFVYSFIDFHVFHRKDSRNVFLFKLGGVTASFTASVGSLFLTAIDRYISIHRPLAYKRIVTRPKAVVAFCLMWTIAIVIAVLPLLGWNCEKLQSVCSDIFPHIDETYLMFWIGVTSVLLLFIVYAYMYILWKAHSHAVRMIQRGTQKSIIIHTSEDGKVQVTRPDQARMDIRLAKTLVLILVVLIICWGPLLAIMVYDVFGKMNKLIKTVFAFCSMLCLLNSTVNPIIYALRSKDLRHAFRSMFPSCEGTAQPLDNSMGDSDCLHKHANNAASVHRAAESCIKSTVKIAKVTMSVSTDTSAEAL

Turning to `CNC(=O)[C@@H](NC(=O)c1nc(-c2ccc(OC)c(C)c2)n2c1CN(C)CCC2)C(C)(C)C` [Compound 350, (S)-N-(3,3-dimethyl-1-(methylamino)-1-oxobutan-2-yl)-3-(4-methoxy-3-methylphenyl)-8-methyl-6,7,8,9-tetrahydro-5H-imidazo[1,5-a][1,4]diazepine-1-carboxamide], the “+/− RCB2” value in test [1] is “−”. The concentration giving a half-maximal response (EC50) in test [2] is more than 10 µM.
On the same counts, the results for `CNC(=O)[C@@H](NC(=O)c1nc(-c2cc3ccccc3o2)n2c1CN(C)CCC2)C(C)(C)C` [Compound 351, (S)-3-(benzofuran-2-yl)-N-(3,3-dimethyl-1-(methylamino)-1-oxobutan-2-yl)-8-methyl-6,7,8,9-tetrahydro-5H-imidazo[1,5-a][1,4]diazepine-1-carboxamide] are “+” and more than 10 µM.
For `CNC(=O)[C@@H](NC(=O)c1nc(-c2cscc2C)n2c1CN(C)CCC2)C(C)(C)C` [Compound 352, (S)-N-(3,3-dimethyl-1-(methylamino)-1-oxobutan-2-yl)-8-methyl-3-(4-methylthiophen-3-yl)-6,7,8,9-tetrahydro-5H-imidazo[1,5-a][1,4]diazepine-1-carboxamide], in test [1], the “+/− RCB2” value is reported as “+”. The same compound displayed an EC50 in test [2] of more than 10 µM.
For the compound `CNC(=O)[C@@H](NC(=O)c1nc(-c2ccccc2F)n2c1CN(C)CCC2)C(C)(C)C` [Compound 353, (S)-N-(3,3-dimethyl-1-(methylamino)-1-oxobutan-2-yl)-3-(2-fluorophenyl)-8-methyl-6,7,8,9-tetrahydro-5H-imidazo[1,5-a][1,4]diazepine-1-carboxamide], the “+/− RCB2” value in test [1] is given as “+”. Also, the EC50 in test [2] is more than 10 µM.
For `CNC(=O)[C@@H](NC(=O)c1nc(-c2csc3ccccc23)n2c1CN(C)CCC2)C(C)(C)C` [Compound 354, (S)-3-(benzo[b]thiophen-3-yl)-N-(3,3-dimethyl-1-(methylamino)-1-oxobutan-2-yl)-8-methyl-6,7,8,9-tetrahydro-5H-imidazo[1,5-a][1,4]diazepine-1-carboxamide], the “+/− RCB2” value in test [1] was “−”. This compound came in with an EC50 in test [2] of more than 10 µM.
Take `CNC(=O)[C@@H](NC(=O)c1nc(-c2ccc(F)cc2F)n2c1CN(C)CCC2)C(C)(C)C` [Compound 355, (S)-3-(2,4-difluorophenyl)-N-(3,3-dimethyl-1-(methylamino)-1-oxobutan-2-yl)-8-methyl-6,7,8,9-tetrahydro-5H-imidazo[1,5-a][1,4]diazepine-1-carboxamide]: in test [1], the “+/− RCB2” value is listed as “+”. For the same compound, the “+/− HCB1” value in test [2] (agonist or inverse agonist at hCB1) is given as “+”.
On to `CNC(=O)[C@@H](NC(=O)c1nc(-c2cccc(Cl)c2F)n2c1CN(C)CCC2)C(C)(C)C` [Compound 356, (S)-3-(3-chloro-2-fluorophenyl)-N-(3,3-dimethyl-1-(methylamino)-1-oxobutan-2-yl)-8-methyl-6,7,8,9-tetrahydro-5H-imidazo[1,5-a][1,4]diazepine-1-carboxamide], for which the EC50 in test [1] and in test [2] was more than 10 µM throughout.
As for `CNC(=O)[C@@H](NC(=O)c1nc(-c2cc(Cl)c(C)cc2F)n2c1CN(C)CCC2)C(C)(C)C` [Compound 357, (S)-3-(5-chloro-2-fluoro-4-methylphenyl)-N-(3,3-dimethyl-1-(methylamino)-1-oxobutan-2-yl)-8-methyl-6,7,8,9-tetrahydro-5H-imidazo[1,5-a][1,4]diazepine-1-carboxamide], the EC50 in test [1] and in test [2] was more than 10 µM throughout.
Turning to `CNC(=O)[C@@H](NC(=O)c1nc(-c2ccc(OC)cc2F)n2c1CN(C)CCC2)C(C)(C)C` [Compound 358], in test [1], the “+/− RCB2” value is given as “−”. The same compound showed an EC50 in test [2] of more than 10 µM.
Turning to `CNC(=O)[C@@H](NC(=O)c1nc(-c2cc(F)ccc2F)n2c1CN(C)CCC2)C(C)(C)C` [Compound 359, (S)-3-(2,5-difluorophenyl)-N-(3,3-dimethyl-1-(methylamino)-1-oxobutan-2-yl)-8-methyl-6,7,8,9-tetrahydro-5H-imidazo[1,5-a][1,4]diazepine-1-carboxamide], the “+/− RCB2” value in test [1] was “+”. The EC50 in test [2] was more than 10 µM.
